Experimental data as given in PMC3262391 (Clinical pharmacology : advances and applications, 2011).
Read-outs that look alike come from different tables or passages of the source.

Tests used:
CYP2C9 [1] = settings: in vitro studies; cited from earlier work
CYP1A2 [2] = settings: in vitro studies; cited from earlier work
CYP2C19 = settings: in vitro studies; cited from earlier work
CYP1A2 [3] = settings: in vitro studies; cited from earlier work; remark: listed apart in the source
CYP2A6 = settings: in vitro studies; cited from earlier work
[4] = excreted in urine; cited from earlier work
CYP2C9 [5] = settings: in vitro studies; cited from earlier work; remark: listed apart in the source
CYP2B6 [6] = settings: in vitro studies; cited from earlier work
CYP3A4 [7] = settings: in vitro studies; cited from earlier work
CYP2E1 = settings: in vitro studies; cited from earlier work
[8] = Simvastatin study: two-way pharmacokinetic interaction, plasma pharmacokinetics; settings: for Cmax / AUCτ: plasma, geometric mean (CV%), n = 23; for Tmax: median (minimum, maximum)
[9] = assay type: in vivo, healthy subjects; settings: for t½: mean (SD)
DPP-4 = settings: cited from earlier work
CYP2B6 [10] = settings: in vitro studies; cited from earlier work; remark: listed apart in the source
[11] = Ketoconazole study: two-way pharmacokinetic interaction, plasma pharmacokinetics; assay type: in vivo, healthy subjects; settings: for Cmax: plasma; for Cmax / AUC0-t / AUC∞: geometric mean (CV%), n = 15; for t½: mean (SD); for Tmax: median (minimum, maximum)
CYP2D6 = settings: in vitro studies; cited from earlier work
CYP3A4 [12] = settings: in vitro studies; cited from earlier work; remark: listed apart in the source
[13] = Diltiazem extended-release study: adverse events; assay type: in vivo, healthy subjects
[14] = Simvastatin study: adverse events; assay type: in vivo, healthy subjects; settings: simvastatin 40-mg group; diagnosed on day 5; deemed possibly related to study drug
[15] = saxagliptin 10 mg + simvastatin 40 mg (day 12)
[16] = saxagliptin 10 mg administered alone (day 4)
[17] = saxagliptin 10 mg + simvastatin 40 mg relative to saxagliptin alone
[18] = compared with saxagliptin 10 mg alone
[19] = saxagliptin 10 mg + diltiazem extended-release 360 mg (day 10), geometric mean (CV%), n = 12
[20] = saxagliptin 10 mg administered alone (day 1), geometric mean (CV%), n = 12
[21] = compared with saxagliptin alone
[22] = saxagliptin 100 mg + ketoconazole 200 mg every 12 hours (day 9)
[23] = saxagliptin 100 mg administered alone (day 1)
[24] = saxagliptin 10 mg + simvastatin 40 mg relative to simvastatin alone

For N#C[C@@H]1C[C@@H]2C[C@@H]2N1C(=O)[C@@H](N)C12CC3CC(O)(CC(O)(C3)C1)C2 [5-Hydroxy saxagliptin, 5-hydroxy saxagliptin], the “induction of CYP2C9” value (CYP2C9 [1]) is given as “do not induce”, the “induction of CYP1A2” value (CYP1A2 [2]) is given as “do not induce” and the “inhibition of CYP2C19” value (CYP2C19) is given as “neither saxagliptin nor 5-hydroxy saxagliptin inhibits”. For the same compound, the “inhibition of CYP1A2” value (CYP1A2 [3]) was “neither saxagliptin nor 5-hydroxy saxagliptin inhibits”, the “inhibition of CYP2A6” value (CYP2A6) was “neither saxagliptin nor 5-hydroxy saxagliptin inhibits” and the renal clearance [4] was about 120 mL/min. For the same compound, the “inhibition of CYP2C9” value (CYP2C9 [5]) was “neither saxagliptin nor 5-hydroxy saxagliptin inhibits”, the “inhibition of CYP2B6” value (CYP2B6 [6]) was “neither saxagliptin nor 5-hydroxy saxagliptin inhibits” and the “induction of CYP3A4” value (CYP3A4 [7]) was “do not induce”. The “inhibition of CYP2E1” value (CYP2E1) was “neither saxagliptin nor 5-hydroxy saxagliptin inhibits”, the Cmax ([8]; SAXA + SIMVA, saxagliptin 10 mg + simvastatin 40 mg (day 12)) was 103 (29) ng/mL and the Cmax ([8]; SAXA, saxagliptin 10 mg administered alone (day 4)) was 96 (33) ng/mL. For the same compound, the AUCτ [8, 15] was 538 (24) ng · h/mL, the AUCτ [8, 16] was 529 (26) ng · h/mL and the Tmax [8, 15] was 1.50 (1.00, 2.00) h. The “increase of AUCτ by simvastatin” value [8, 17] was 2%, the “increase of Cmax by simvastatin” value [8, 17] was 8% and the Tmax [8, 16] was 1.50 (1.00, 3.00) h. For the same compound, the “decrease of AUC0-t by diltiazem extended-release” value [9, 18] was 36%, the “decrease of AUC∞ by diltiazem extended-release” value [9, 18] was 34% and the “decrease of Cmax by diltiazem extended-release” value [9, 18] was 43%. The Cmax ([9]; plasma, SAXA + DILT XR, saxagliptin 10 mg + diltiazem extended-release 360 mg (day 10), geometric mean (CV%), n = 12) was 63 (26) ng/mL, the Cmax ([9]; plasma, SAXA, saxagliptin 10 mg administered alone (day 1), geometric mean (CV%), n = 12) was 111 (20) ng/mL and the AUC0-t [9, 19] was 338 (24) ng · h/mL. The “AUC∞” value [9, 19] was 353 (23) ng · h/mL, the t½ ([9]; saxagliptin 10 mg + diltiazem extended-release 360 mg (day 10)) was 3.30 (0.53) h and the Tmax ([9]; saxagliptin 10 mg + diltiazem extended-release 360 mg (day 10), median (minimum, maximum)) was 1.50 (1.00, 2.50) h. The AUC0-t [9, 20] was 526 (25) ng · h/mL, the “AUC∞” value [9, 20] was 538 (25) ng · h/mL and the t½ ([9]; saxagliptin 10 mg administered alone (day 1)) was 3.04 (0.38) h. For the same compound, the Tmax ([9]; saxagliptin 10 mg administered alone (day 1), median (minimum, maximum)) was 1.50 (1.00, 2.00) h, the “DPP-4 inhibitive potency relative to the parent saxagliptin” value (DPP-4) was “one-half” and the “induction of CYP2B6” value (CYP2B6 [10]) was “do not induce”. For the same compound, the “decrease of AUC0-t by ketoconazole” value [11, 21] was 91%, the “decrease of AUC∞ by ketoconazole” value [11, 21] was 88% and the “decrease of Cmax by ketoconazole” value [11, 21] was 95%. For the same compound, the Cmax ([11]; SAXA + KETO, saxagliptin 100 mg + ketoconazole 200 mg every 12 hours (day 9)) was 53 (49) ng/mL, the Cmax ([11]; SAXA, saxagliptin 100 mg administered alone (day 1)) was 999 (24) ng/mL and the AUC0-t [11, 22] was 473 (59) ng · h/mL. For the same compound, the “AUC∞” value [11, 22] was 627 (43) ng · h/mL, the t½ [11, 22] was 6.33 (2.49) h and the Tmax [11, 22] was 2.00 (0.75, 4.00) h. For the same compound, the AUC0-t [11, 23] was 5294 (19) ng · h/mL, the “AUC∞” value [11, 23] was 5381 (19) ng · h/mL and the t½ [11, 23] was 3.68 (0.53) h. The Tmax [11, 23] was 1.50 (1.00, 2.00) h, the “inhibition of CYP2D6” value (CYP2D6) was “neither saxagliptin nor 5-hydroxy saxagliptin inhibits” and the “inhibition of CYP3A4” value (CYP3A4 [12]) was “neither saxagliptin nor 5-hydroxy saxagliptin inhibits”.
In the case of COc1ccc([C@@H]2Sc3ccccc3N(CCN(C)C)C(=O)[C@@H]2OC(C)=O)cc1 [Diltiazem, diltiazem, reference compound], the “first-degree atrioventricular block, subjects” value ([13]; by treatment: diltiazem extended-release 360 mg alone, saxagliptin 10 mg + diltiazem extended-release 360 mg, saxagliptin 10 mg alone) is reported as 42.9%, the “subjects with first-degree atrioventricular block who discontinued the trial” value ([13]; diltiazem extended-release 360 mg alone, on day 5) is reported as “two of these subjects” and the “adverse events reported (of thirteen in the study)” value ([13]; diltiazem extended-release 360 mg monotherapy) is reported as 12. It also gave an AUC ([9]; human, plasma, oral, 360 mg) of 3870 ng·h/mL, a Cmax ([9]; human, plasma, oral, 360 mg) of 262 ng/mL and a Tmax ([9]; human, plasma, oral, 360 mg) of 13 h.
With CCC(C)(C)C(=O)O[C@H]1C[C@@H](C)C=C2C=C[C@H](C)[C@H](CC[C@@H]3C[C@@H](O)CC(=O)O3)[C@H]21 [Simvastatin, simvastatin, reference compound] the “subjects discontinued due to mild upper respiratory tract infection” value [14] was “One subject”, the “decrease of Cmax by saxagliptin” value [8, 24] was 12% and the “increase of AUCτ by saxagliptin” value [8, 24] was 4%.
